Experiments:
LNCaP tumours = experiment: SPECT-CT imaging study of 123I-TAAG-PSMA; type: in vivo, NCr mice
Protocol: Prior to imaging, mice were anaesthetized with 2.5% isoflurane and maintained under same conditions for the length of the SPECT and CT scans. Imaging was conducted on the first mouse at 2 and 6 hours post injection and on the second mouse at 4 and 23 hours post injection. At each time point, multiple SPECT acquisitions were completed for 32 frames at 10 sec/frame for the 2 hour time point, 20 sec/frame for the 4 and 6 hour time point or 30 sec/frame for the 23 hour time point on a GammaMedica Ideas X-SPECT system (North Ridge, Calif.). CT acquisitions consisted of 512 projections acquired over 360° with 75 Kvp, 205 mA cone beam CT system. Cobra Exxim software (Feldkamp filtered backprojection cone beam reconstruction software) was used to reconstruct the images at a voxel size of 155 microns and a matrix size of 512^3. An OS-EM interactive reconstructed method (2 iterations/8 subsets) was used to reconstruct the SPECT data which was fused to the CT data using in-house software. AMIDE software was used to analyze the images.

[1] = Log D pH 7.4 measurement (n-octanol/PBS); type: physicochemical; conditions: n-octanol/PBS pH 7.4
Protocol: The samples were vortexed for 20 min and centrifuged at 6000 rpm for 5 min. Aliquots (0.1 mL) were subsequently removed from both the aqueous and the organic n-octanol layers and counted separately in a γ counter (Wallac Wizard 1470 automatic γ counter). Measurements represent three separate experiments with four extractions in each set for a total of twelve data points. The partition coefficients were then calculated using the equation D=(activity concentration in n-octanol)/(activity concentration in aqueous layer).

LNCaP xenografts = experiment: Biodistribution study of 123I-TAAG-PSMA in NCr nude mice bearing LNCaP xenografts; type: in vivo, NCr nude mice
Protocol: LNCaP cells derived from lymph node metastases of human prostate carcinoma were purchased from ATCC. Cells were propagated using RPMI 1640 media supplemented with 10% Fetal Bovine Serum, 4 mM L-glutamine, 1 mM Sodium Pyruvate, 10 mM Hepes, 1% Penicillin Streptomycin (Invitrogen, Mississauga ON) and 0.25% D-glucose (Sigma, Oakville ON) and grown at 37° C. and 5% CO2. NCr nude homo male mice ordered from Taconic (Germantown, N.Y., USA) were injected with 2.0×10^6 LNCaP cells in 100 μL Matrigel/DPBS (1:1) subcutaneously into the right flank at 7 to 8 weeks of age. […] Animals were anesthetized with 3% isoflurane and euthanized by cervical dislocation. Blood, bone, liver, gall bladder, spleen, small intestine (with contents), large intestine and caecum (with contents), bladder, urine, skeletal muscle, brain, LNCaP tumour, heart, lung, salivary glands, kidneys, stomach (with contents), prostate, thyroid/trachea, adrenals, esophagus, tail, adipose and testes were collected, weighed and counted in a Perkin Elmer Wizard 1470 Automatic Gamma Counter. Decay correction was used to normalize organ activity measurements to time of dose preparation for data calculations with respect to injected dose (i.e. % ID/g).

[2] = at pH 7.4; comparison value; cited from earlier work
[3] = Stability of I-TAAG construct in solution; type: physicochemical; conditions: 48 hours
Protocol: Reactions were complete within 10 min and the product was isolated by solid-phase extraction or semi-preparative HPLC.

[4] = Biodistribution study of 123I-TAAG in normal Balb/c mice; type: in vivo; conditions: tail vein injection
Description: Animals were anesthetized with 3% isoflurane and euthanized by cervical dislocation. Blood, heart, lungs, liver, spleen, kidneys, adrenals, stomach (with contents), large intestine and caecum (with contents) and small intestines (with contents), bladder and urine, thyroid/trachea, bone, skeletal muscle and tail were collected, weighed and counted in a Perkin Elmer Wizard 1470 Automatic Gamma Counter. Decay correction was used to normalize organ activity measurements to time of dose preparation for data calculations with respect to injected dose (i.e. % ID/g).

[5] = 1 hr + block (PMPA 10 mg/kg), NCr nude mice bearing LNCaP xenografts, mean ± SEM
[6] = male, NCr nude, mouse, in vivo, 1 h
[7] = male, NCr nude, mouse, in vivo, 23 h
[8] = male, NCr nude, mouse, in vivo, 24 h

SMILES: O=C(O)CC[C@H](NC(=O)N[C@@H](CCCCNC(=O)Cn1cc(I)nn1)C(=O)O)C(=O)O [^123I-TAAG-PSMA, (S)-2-(3-((S)-1-carboxy-5-(2-(4-iodo-1H-1,2,3-triazol-1-yl)acetamido)pentyl)ureido)pentanedioic acid]
- SPECT-CT image uptake (LNCaP tumours; 23-24 hours post injection): the activity was found only in the tumour and in the thyroid
- SPECT-CT image uptake (LNCaP tumours; two hours post injection): uptake of the agent in the kidneys, bladder and a small amount in the tumour
- logD [1]: -3.23 ± 0.05
- Tissue distribution, Adipose (LNCaP xenografts; [5]): 0.35 ± 0.21 % ID/g
- Tissue distribution, Adrenals (LNCaP xenografts; [5]): 3.34 ± 1.49 % ID/g
- Tissue distribution, Bladder (LNCaP xenografts; [5]): 10.78 ± 4.16 % ID/g
- Tissue distribution, Blood (LNCaP xenografts; [5]): 0.32 ± 0.06 % ID/g
- Tissue distribution, Bone (LNCaP xenografts; [5]): 0.26 ± 0.02 % ID/g
- Tissue distribution, Brain (LNCaP xenografts; [5]): 0.05 ± 0.02 % ID/g
- Tissue distribution, Esophagus (LNCaP xenografts; [5]): 0.32 ± 0.04 % ID/g
- Tissue distribution, Gall Bladder (LNCaP xenografts; [5]): 1.32 ± 0.53 % ID/g
- Tissue distribution, Heart (LNCaP xenografts; [5]): 0.15 ± 0.04 % ID/g
- Tissue distribution, Kidneys (LNCaP xenografts; [5]): 9.57 ± 5.17 % ID/g
- Tissue distribution, Large Intestine + Caecum (LNCaP xenografts; [5]): 0.12 ± 0.03 % ID/g
- Tissue distribution, Liver (LNCaP xenografts; [5]): 2.25 ± 0.29 % ID/g
- Tissue distribution, Lung (LNCaP xenografts; [5]): 0.36 ± 0.08 % ID/g
- Tissue distribution, Prostate (LNCaP xenografts; [5]): 3.85 ± 2.91 % ID/g
- Tissue distribution, Salivary Glands (LNCaP xenografts; [5]): 0.52 ± 0.12 % ID/g
- Tissue distribution, Skeletal Muscle (LNCaP xenografts; [5]): 0.19 ± 0.03 % ID/g
- Tissue distribution, Small Intestine (LNCaP xenografts; [5]): 0.30 ± 0.09 % ID/g
- Tissue distribution, Spleen (LNCaP xenografts; [5]): 0.13 ± 0.03 % ID/g
- Tissue distribution, Stomach (LNCaP xenografts; [5]): 0.49 ± 0.07 % ID/g
- Tissue distribution, Testes (LNCaP xenografts; [5]): 1.16 ± 1.05 % ID/g
- Tissue distribution, Thyroid/Trachea (LNCaP xenografts; [5]): 0.62 ± 0.24 % ID/g
- Tissue distribution, Urine (LNCaP xenografts; [5]): 486.70 ± 163.60 % ID/g
- Tissue distribution, Adipose (LNCaP xenografts; [6]): 1.73 ± 0.26 % ID/g
- Tissue distribution, Adrenals (LNCaP xenografts; [6]): 8.45 ± 2.13 % ID/g
- Tissue distribution, Bladder (LNCaP xenografts; [6]): 1.78 ± 0.23 % ID/g
- Tissue distribution, Blood (LNCaP xenografts; [6]): 0.81 ± 0.07 % ID/g
- Tissue distribution, Bone (LNCaP xenografts; [6]): 0.41 ± 0.07 % ID/g
- Tissue distribution, Brain (LNCaP xenografts; [6]): 0.06 ± 0.01 % ID/g
- Tissue distribution, Esophagus (LNCaP xenografts; [6]): 1.3 ± 0.26 % ID/g
- Tissue distribution, Gall Bladder (LNCaP xenografts; [6]): 1.28 ± 0.26 % ID/g
- Tissue distribution, Heart (LNCaP xenografts; [6]): 0.85 ± 0.29 % ID/g
- Tissue distribution, Kidneys (LNCaP xenografts; [6]): 137.54 ± 11.43 % ID/g
- Tissue distribution, Large Intestine + Caecum (LNCaP xenografts; [6]): 0.27 ± 0.06 % ID/g
- Tissue distribution, Liver (LNCaP xenografts; [6]): 2.32 ± 0.28 % ID/g
- Tissue distribution, Lung (LNCaP xenografts; [6]): 2.58 ± 0.46 % ID/g
- Tissue distribution, Prostate (LNCaP xenografts; [6]): 1.89 ± 0.62 % ID/g
- Tissue distribution, Salivary Glands (LNCaP xenografts; [6]): 2.97 ± 0.95 % ID/g
- Tissue distribution, Skeletal Muscle (LNCaP xenografts; [6]): 0.33 ± 0.04 % ID/g
- Tissue distribution, Small Intestine (LNCaP xenografts; [6]): 0.64 ± 0.13 % ID/g
- Tissue distribution, Spleen (LNCaP xenografts; [6]): 4.98 ± 1.31 % ID/g
- Tissue distribution, Stomach (LNCaP xenografts; [6]): 0.90 ± 0.07 % ID/g
- Tissue distribution, Testes (LNCaP xenografts; [6]): 0.69 ± 0.10 % ID/g
- Tissue distribution, Thyroid/Trachea (LNCaP xenografts; [6]): 1.46 ± 0.3 % ID/g
- Tissue distribution, Urine (LNCaP xenografts; [6]): 43.99 ± 5.54 % ID/g
- Tumor to tissue ratio, Tumour/blood (LNCaP xenografts; [6]): 28.22 ± 7.12
- Tumor to tissue ratio, Tumour/skeletal muscle (LNCaP xenografts; [6]): 78.06 ± 30.62
- activity retained in the tumour (LNCaP xenografts; [7]): 15 % ID/g
- remaining activity in the thyroid (LNCaP xenografts; [7]): about 10 % ID/g
- Tissue distribution, Adipose (LNCaP xenografts; [8]): 0.02 ± 0.01 % ID/g
- Tissue distribution, Adrenals (LNCaP xenografts; [8]): 0.33 ± 0.07 % ID/g
- Tissue distribution, Bladder (LNCaP xenografts; [8]): 0.08 ± 0.02 % ID/g
- Tissue distribution, Blood (LNCaP xenografts; [8]): 0.01 ± 0.00 % ID/g
- Tissue distribution, Bone (LNCaP xenografts; [8]): 0.04 ± 0.01 % ID/g
- Tissue distribution, Brain (LNCaP xenografts; [8]): 0.03 ± 0.00 % ID/g
- Tissue distribution, Esophagus (LNCaP xenografts; [8]): 0.07 ± 0.01 % ID/g
- Tissue distribution, Gall Bladder (LNCaP xenografts; [8]): 0.19 ± 0.08 % ID/g
- Tissue distribution, Heart (LNCaP xenografts; [8]): 0.01 ± 0.00 % ID/g
- Tissue distribution, Kidneys (LNCaP xenografts; [8]): 0.99 ± 0.27 % ID/g
- Tissue distribution, LNCap Tumour (LNCaP xenografts; [8]): 15.31 ± 4.23 % ID/g
- Tissue distribution, Large Intestine + Caecum (LNCaP xenografts; [8]): 0.04 ± 0.01 % ID/g
- Tissue distribution, Liver (LNCaP xenografts; [8]): 0.03 ± 0.01 % ID/g
- Tissue distribution, Lung (LNCaP xenografts; [8]): 0.01 ± 0.00 % ID/g
- Tissue distribution, Prostate (LNCaP xenografts; [8]): 0.09 ± 0.03 % ID/g
- Tissue distribution, Salivary Glands (LNCaP xenografts; [8]): 0.05 ± 0.01 % ID/g
- Tissue distribution, Skeletal Muscle (LNCaP xenografts; [8]): 0.01 ± 0.00 % ID/g
- Tissue distribution, Small Intestine (LNCaP xenografts; [8]): 0.02 ± 0.01 % ID/g
- Tissue distribution, Spleen (LNCaP xenografts; [8]): 0.03 ± 0.00 % ID/g
- Tissue distribution, Stomach (LNCaP xenografts; [8]): 0.07 ± 0.03 % ID/g
- Tissue distribution, Testes (LNCaP xenografts; [8]): 0.01 ± 0.00 % ID/g
- Tissue distribution, Thyroid/Trachea (LNCaP xenografts; [8]): 9.36 ± 1.05 % ID/g
- Tissue distribution, Urine (LNCaP xenografts; [8]): 1.04 ± 0.39 % ID/g
- Tumor to tissue ratio, Tumour/blood (LNCaP xenografts; [8]): 1867 ± 499.72
- Tumor to tissue ratio, Tumour/skeletal muscle (LNCaP xenografts; [8]): 1531 ± 422.74

SMILES: O=C(O)c1ccc(I)cc1 [p-iodobenzoic acid]
- log D [2]: 0.07

SMILES: O=C(O)Cn1cc(I)nn1 [^123I-TAAG, 2-(4-iodo-1H-1,2,3-triazol-1-yl)acetic acid]
- logD [1]: -2.58 ± 0.01
- stability in solution [3]: stable over 48 hours in solution with no signs of deiodination
- clearance from organs (biodistribution) [4]: clears all major organs quickly and collects in the bladder within 30 minutes
